Laboratory results reported in patent publication US9109048B2, “Inhibition of tumor growth” (priority 1998, dated 2015).
Ends that are not written are not given here.

Key:
Type in all cases: cell-based
[1] = tested on: Staphylococcus aureus ATCC 25923; assay: MIC (minimum inhibitory concentration) test, microdilution
Experimental: (§1) The bacterial strains used were: Escherichia coli ATCC 25922 and Staphylococcus aureus ATCC 25923. All strains were stored at −70° C. The bacteria were grown in 2% Bacto Peptone water (Difco 1807-17-4). All tests were performed with bacteria in mid-logarithmic growth phase. Determination of the minimum inhibitory concentration (MIC) of the peptides for bacterial strains were performed in 1% Bacto Peptone water. A standard microdilution technique with an inoculum of 2×10^6 CFU/ml was used. All assays were performed in triplets. Since the peptides are positively charged and therefore could adhere to the plastic wells, we controlled the actual concentration of the peptides in the solution by HPLC. There was no difference between the concentration of the peptides before or after adding the solution to the plastic wells.

[2] = tested on: Escherichia coli ATCC 25922; assay: as above; conditions: for Mic E-coli: Table 19
Experimental: as §1

human red blood cells = assay: Hemolytic assay; conditions: red cells of human
Experimental: The hemolytic activities of the peptides were determined using fresh human red blood cells. 8 ml blood was taken from a healthy person. 4 ml blood was transferred to a polycarbonate tube containing heparin to a final concentration of 10 U/ml, and the remaining 4 ml blood was transferred to a glass tube containing EDTA with final concentration of 15% EDTA. The erythrocytes were isolated from heparin-treated blood by centrifugation in 1500 rpm for 10 min and washed three times with phosphate-buffered saline (PBS) to remove plasma and buffy coat. The cell pellet was resuspended in PBS to make the final volume of 4 ml. The peptide was diluted to a concentration of 2 mg/ml and 0.1 mg/ml. The peptide was further diluted to the concentrations as stated in Table 1. For each tube PBS was added first, then RBCs and peptide solutions. The hematocrit in the blood treated with EDTA was determined after 30 min with Sysmex K-1000, and the resuspended RBCs were diluted into 10% hematocrit. RBCs in PBS (1%) with and without peptides (Table 18) were incubated in a shaker at 37° for 1 hour and then centrifuged at 4000 rpm for 5 min. The supernatant were carefully transferred to new polycarbonate tubes and the absorbance of the supernatant was measured at 540 nm. Baseline hemolysis was hemoglobin released in the presence of PBS, and 100% hemolysis was hemoglobin released in the presence of 0.1% Triton X-100.

Row | Substance | MIC S. aureus ([1]; ATCC 25923) | MIC E. coli ([2]; ATCC 25922) | MIC E. coli ([2]; Table 15) | EC 50 (toxicity, hemolysis) (human red blood cells) | other results
1 | PAIRKAFRWAWRMLKKAA [LFB 14-31A2,6,10,17F7I3K16L14R4] |  |  |  |  | Mic S. Aureus ([1]; Table 19): 2/4; Mic E-coli [2]: 2/4
2 | PAWFKARRWAWRMLKKAA-OH [LFB 14-31 A2,6,10,17 K16L14] | 4.4 µM | 4.4 µM | 10.0 mg/L | >1000 mg/L | MIC S. aureus ([1]; Table 15): 10.0 mg/L; EC50 (human red blood cells): > 440 µM
3 | PAWRKAFRWAIRMLKKAA [LFB 14-31A2,6,10,17F7I11K16L14R4] |  |  |  |  | Mic E-coli [2]: 2/5
4 | PAWRKAFRWAWRMKKLAA-OH [LFB 14-31 A2,6,10,17F7R4] |  | 4.4 µM | 10.0 mg/L | >1000 mg/L | MIC E. coli ([2]; Table 8): 10 mg/L; EC50 (human red blood cells): > 440 µM
5 | PAWRKAFRWAWRMLKKAA-OH [LFB 14-31 A2,6,10,17 F7K16L14R4] |  |  |  |  | Mic E-coli [2]: 2/4
6 | PAWRKARRWARRMKKLAA-OH [LFB 14-31 A2,6,10,17R4,11] |  |  |  | >1000 mg/L | 

More lines, main results first:

Row | MIC S. aureus ([1]; ATCC 25923) | MIC E. coli ([2]; ATCC 25922) | MIC E. coli ([2]; Table 15) | Substance | EC 50 (toxicity, hemolysis) (human red blood cells) | other results
7 | 10 mg/L | 5 mg/L |  | GIGKFLKKARKWGRAWVRILKKG [Tosmag W12,16] |  | 
8 | >100 mg/L | >100 mg/L |  | GIGKFWHWAKKFGKAFVGEIMNS [Mag 2 W 6,8] |  | 
9 | 200 mg/L | 100 mg/L |  | RRWQWRMKKLGA-OH [LFB 20-31] |  | Minimum inhibitory concentration (MIC) S. aureus ATCC 25923 ([1]; Table 1, value in parentheses): 124 µM; Minimum inhibitory concentration (MIC) E. coli ATCC 25922 ([2]; Table 1, value in parentheses): 62 µM
10 | 2.5 mg/L | 10 mg/L |  | YRAWRWAWRWR-NH2 [LFM 17-27 A7R2,8,9W3,4,10Y1 NH2, TYR-ARG-ALA-TRP-ARG-TRP-ALA-TRP-ARG-TRP-ARG-CONH2] |  | 
11 |  | 5.7 µM | 10.0 mg/L | YRMWRWAWRWR-NH2 [LFB 17-27 A7 M3 R2,11 W4,10 Y1 NH2] |  | 
12 |  | 7.0 µM | 10.0 mg/L | YRWARWWRR-NH2 [LFM 17-25 A4R2,8,9W3,7Y1NH2] | >1000 mg/L | MIC E. coli ([2]; Table 12): 10 mg/L; EC50 (human red blood cells): > 697 µM
